Measurements taken from patent US20130096067A1, “DROSOPHILA TUMOR STEM CELL MODEL AND USES THEREOF” (priority 2011, published 2013).
Entries after “also recorded” stand apart in the source; their conditions may differ. Where two headings read alike, the source gives them in different places.

Tests used:
[1] = system: Raf-1^gof TSCs; experiment: Visualization of Raf-1^gof tumors in dissected guts by esg-GFP and Delta staining; format: in vivo, Drosophila
Description: Samples were incubated 1 hour in 5% NDS blocking solution, overnight in primary antibody, 1.5 hours in secondary antibody and 6 minutes in DAPI. They were rinsed and washed between steps in PBS containing 0.1% Triton X-100. Finally they were placed in mounting media (Vectashield) and mounted for microscopy. Images were taken with a Leica TCS SP2 confocal microscope.
(§1) Primary screening drugs were provided by the Harvard Institute for Chemistry and Cell Biology (ICCB; 480 known bioactives library), and the National Cancer Institute (NCI) Drug Therapeutics Program (library of 88 FDA-approved oncology drugs). Secondary assays were conducted with freshly prepared 10 mM stocks that were diluted 1:100 in fly food, giving a final concentration of 100 μM.
(§2) Drugs were dissolved in 100% DMSO. Drugs were mixed 1:100 with molten fly food at 37° C. and then aliquoted to either 5 mL tubes or 1 mL wells of a 96-well plate.
Control flies were treated with DMSO.
Flies were treated with DMSO alone as a control.

[2] = system: Raf-1^gof intestinal tumors; conditions: for Fold: luciferase relative to DMSO, fed three consecutive days in vials; for Log2 (fold) (luciferase activity, log2 of the fold difference relative to DMSO controls) / Fold (luciferase activity, fold difference relative to DMSO controls): screen of 480 ICCB compounds in vials, compounds fed to flies with one-day old Raf-1^gof tumors, esg-Gal4 luciferase
[3] = system: Raf-1^gof intestinal tumors; experiment: Luciferase screen of FDA-approved (NCI) drugs in 96-well plates, flies with Raf-1^gof intestinal tumors; format: in vivo, Drosophila; conditions: for Avg (3 + 6): average of Day 3 and Day 6 fold; for Log2 (fold): log2 of the Day 3 fold difference in luciferase relative to DMSO controls; for Day 3 Fold: luciferase activity relative to DMSO controls, single dose of drug for three days, 96-well plates; for Day 6 Fold: six-day protocol: single dose for three days, then another dose for three more days
[4] = system: JNK signaling; experiment: puc-LacZ reporter for JNK signaling in wild-type guts; format: in vivo, Drosophila; conditions: EC cells
Description: (§3) Flies were treated with DMSO alone as a control. […].
(§4) For example, subjecting the fly intestine to the detergent dextran sulfate sodium (DSS) or to pathogen infection, induces ECs to activate the JNK stress-related pathway and to express IL-6 related cytokines (Unpaireds/Upds) (Jiang et al., 2009; Buchon et al., 2009; Apidianakis et al., 2009). The Upds activate JAK-STAT signaling in the ISCs, driving them to overproliferate. To determine if these same pathways are activated in response to FDA anti-cancer drugs, the puc-lacZ reporter was used to monitor JNK signaling, and a Gal-4 enhancer trap to monitor expression of Upd-3, the Upd cytokine preferentially expressed in the gut in response to injury (Jiang et al., 2009).

[5] = system: JAK-STAT signaling; experiment: upd3-GFP reporter for JAK-STAT signaling in wild-type guts; format: in vivo, Drosophila; conditions: EC cells
Description: as §3, §4

[6] = system: ISCs/EBs; experiment: Drug-induced ISC/EB expansion in animals with loss-of-function JAK allele hop^msv1; format: in vivo, Drosophila; conditions: loss-of-function JAK allele hop^msv1 vs wild type
Description: FIG. 7. FDA anti-cancer drugs that block TSCs can have differential effects on the microenvironment and growth of wild-type ISCs. […] Flies were treated with DMSO alone as a control. […]. […] C) The expansion of ISCs/EBs in response to bortezomib and paclitaxel is less severe in animals with a loss-of-function JAK allele, hop^msv1.
Controls: yw,yv;attP2 (Ni et al., 2008). Gal4 drivers and reporters: esg-Gal4,UAS-GFP,tub-Gal80^ts (Micchelli et al., 2006), UAS-luc2(luciferase at attP2) (Markstein et al., 2008), puc-lacZE69 (Ring et al., 1993), #42685}, upd3-Gal4 (Agaisse et al., 2003). UAS constructs: UAS-Raf-1^gof (Brand et al., 1994), UAS-raptor-RNAi (TRIP stock JF01088), UAS-Dsor-RNAi (TRIP stock JF01697), UAS-Akt-RNAi (TRIP stock HMS00007). UAS-NotchDN (Jacobsen 1998). Mutants: hop^msv1 (Perrimon et al., 1986). Using the above stocks, an esg-Gal4 stock was created with both an inducible GFP reporter and an inducible Luciferase reporter: esg-Gal4,UAS-GFP,tub-Gal80^ts; UAS-luc2. For the chemical screens the following cross was performed to create Raf-1^gof intestinal tumors marked with GFP and luciferase: UAS-Raf-1^gof X esg-Gal4,UAS-GFP,tub-Gal80^ts; UAS-luc2. […]

[7] = system: Raf-1^gof tumor cells; experiment: esg-Gal4 luciferase assay in whole-fly lysates of control and drug-treated flies (validation and replicate assays); format: in vivo, Drosophila
Description: as §1, §2
Flies were anesthetized and transferred in pools of 3 to 96-well plates containing 100 μL of glo lysis buffer (Promega E2661) and homogenized with a multiple homogenizer (Burkard Scientific BS00253) for 3-5 minutes. The plates were then centrifuged for 5 minutes at 4,000 rpm, and the lysates were then transferred to new 96-well “master” plates. Firefly luciferase assays were conducted with 20 μL of lysate as specified by Promega. Luminescence was counted using the Molecular Devices Analyst GT plate reader.
To exploit the TSC model for in vivo chemical screens, a high-throughput method was developed to track tumor growth, using a luciferase reporter assay instead of the conventional method of visualizing tumors with GFP. […] The esg-Gal4 driver was employed to express luciferase in the TSCs and the effects of various compounds were compared by measuring luciferase in homogenates of control and drug-treated flies.

[8] = esg-GFP in dissected guts, DMSO control
[9] = Table 3 summary of hits, Screen ICCB
[10] = assessed three days later, averaged from multiple wells

| Molecule | effect on Raf-1^gof tumor cells / tumor growth [1, 8] | Fold [2, 9] | Log2 (fold) (luciferase activity, log2 of the fold difference relative to DMSO controls) ([2]; assessed three days later) | Fold (luciferase activity, fold difference relative to DMSO controls) [2, 10] | Avg (3 + 6) [3] | Log2 (fold) [3] | Day 3 Fold [3] | Day 6 Fold [3] | expression of puc-lacZ reporter (JNK signaling) [4] | expression of upd3-GFP / Upd-3 reporter (JAK-STAT signaling) [5] | expansion of ISCs/EBs in hop^msv1 animals [6] | further results |
| --- | --- | --- | --- | --- | --- | --- | --- | --- | --- | --- | --- | --- |
| Nc1ncnc2c1c(I)cn2[C@@H]1O[C@H](CO)[C@@H](O)[C@H]1O [5-iodotubercidin, reference compound] | reduced tumor growth | 0.530 fold | −0.917 | 0.530 |  |  |  |  |  |  |  |  |
| CC(C)C[C@H](NC(=O)[C@H](Cc1ccccc1)NC(=O)c1cnccn1)B(O)O [Bortezomib] |  |  |  |  | 0.607 fold | −2.013 | 0.248 fold | 0.967 fold | inducing expression of puc-lacZ; also recorded: induced expression of both the JNK puc-lacZ reporter and the Upd-3 reporter | inducing expression of puc-lacZ (red, upper panel) and upd3-GFP; also recorded: induced expression of both the JNK puc-lacZ reporter and the Upd-3 reporter | less severe |  |
| C[C@H](NC(=O)Cc1cc(F)cc(F)c1)C(=O)N[C@H]1N=C(c2ccccc2)c2ccccc2N(C)C1=O [Compound E, reference compound] | augmented tumor growth; also recorded: increased tumor growth; also recorded: dramatic expansion of the tumor | 2.696 fold |  |  |  |  |  |  |  |  |  | effect on luciferase activity ([7]; whole-animal extracts vs DMSO controls): augmented tumor growth and luciferase activity; Log2 (fold) of luciferase activity relative to DMSO controls ([2]; ICCB compounds fed in vials to flies with one-day old Raf-1^gof tumors, assessed three days later): 1.431; Fold (luciferase activity relative to DMSO controls) ([2]; ICCB compounds fed in vials to flies with one-day old Raf-1^gof tumors, assessed three days later, averaged from multiple wells): 2.696 fold; Log2 (fold) [2, 9]: 1.431 |
| CC(=O)O[C@H]1C(=O)[C@@]2(C)[C@H]([C@H](OC(=O)c3ccccc3)[C@]3(O)C[C@H](OC(=O)[C@H](O)[C@@H](NC(=O)c4ccccc4)c4ccccc4)C(C)=C1C3(C)C)[C@]1(OC(C)=O)CO[C@@H]1C[C@@H]2O [Paclitaxel] |  | 0.274 fold | −1.870 | 0.274 | 0.695 fold | −1.808 | 0.285 fold | 1.104 fold | inducing expression of puc-lacZ; also recorded: induced expression of both the JNK puc-lacZ reporter and the Upd-3 reporter | inducing expression of puc-lacZ (red, upper panel) and upd3-GFP; also recorded: induced expression of both the JNK puc-lacZ reporter and the Upd-3 reporter | less severe |  |
| COc1cc2c(c(OC)c1OC)-c1ccc(OC)c(=O)cc1[C@@H](NC(C)=O)CC2 [colchicine] |  |  |  |  |  |  |  |  |  |  |  | effect on luciferase activity ([7]; in vivo): steep drop in luciferase activity; loss of luciferase activity ([7]; in vivo): about 80%; effect on Raf-1^gof tumor cells / tumor growth ([1]; in vivo): eliminated virtually all of the tumor cells; also recorded: eliminates virtually all of the Raf-1^gof tumor cells; also recorded: virtually all of the tumor cells were lost |
| Bleomycin |  |  |  |  | 0.521 fold | 0.060 | 1.043 fold | 0.000 fold | induced JNK and JAK-STAT signaling | induced JNK and JAK-STAT signaling |  | effect on Delta positive TSCs ([1]; Delta staining of dissected guts): failed to block TSCs |
